# Read-outs that look alike come from different tables or passages of the source.
# Target: N-type calcium channel (α1B (Cav2.2), β3 and α2δ subunits) (Homo sapiens, UniProt Q00975)
# Assay: Functional Assay: Antagonism of N-Type Calcium Channel (FDSS calcium mobilization, KCl depolarization)
# Format: cell-based
# Experimental: A stable cell line (HEK parent) co-expressing the α1B (Cav2.2), β3 and α2δ subunits of the N-type calcium channel subunits was used. These cells were routinely grown as monolayers in low glucose-containing Dulbecco's Modified Eagle Medium supplemented with 10% FBS, 2 mM L-glutamine, 100 I.U./mL penicillin, 100 μg/mL streptomycin, 400 μg/mL G418 and 200 μg/mL Zeocin (split ratio=1:5). Cells were maintained in 5% CO2 at 37° C. Compounds of Formula (I) were prepared as 10 mM stocks in DMSO from neat compound, if available. Otherwise, the 5 or 10 mM DMSO stock solutions provided in-house were used.
# Calcium mobilization responses to KCl depolarization were evaluated by measuring the intensity of calcium-mediated fluorescent signal in the presence of BD Calcium Assay Dye (BD Biosciences, Franklin Lakes, N.J., U.S.A.), utilizing a Functional Drug Screening System (FDSS) by Hamamatsu Corporation (Bridgewater, N.J. U.S.A.).
# Twenty-four hr prior to assay, cells were seeded in clear-base poly-D-lysine-coated 384-well plates (BD Biosciences) at a density of 5,000 cells per well in culture medium and grown overnight in 5% CO2 at 37° C. On the day of assay, growth media were removed, and cells were loaded with BD calcium assay dye (BD Biosciences) for 35 min at 37° C. under 5% CO2 and then for 25 min at room temp. Utilizing the FDSS, cells were exposed to representative compounds of Formula (I) at varying concentrations, and intracellular calcium was measured for 5 min prior to the addition of 50 mM KCl for an additional 3 min of measurement.
# Calculations and Formulas
# IC50 values for representative compounds of Formula (I) were determined from six-point concentration-response experiments and represent the concentration of said compound required to inhibit 50% of the maximal response. Maximal fluorescence intensity (FI) achieved upon addition of 50 mM KCl was exported from the FDSS software and further analyzed using GraphPad Prism 3.02 (Graph Pad Software Inc., San Diego, Calif., U.S.A.). Data were normalized to the maximum average counts from quadruplicate wells for each condition in the presence of 50 mM KCl and to the minimum average counts in the presence of buffer. Theoretical curves were generated using nonlinear regression curve-fitting analysis of either sigmoidal concentration-response or sigmoidal concentration-response (variable slope), and the IC50 values with the best-fit curve determined by GraphPad Prism were reported.
# [1] = HEK cell line, 50 mM KCl depolarization, six-point concentration-response, read-out: FDSS IC50
# Chain of N-type calcium channel (α1B (Cav2.2), β3 and α2δ subunits) (Q00975 whole entry): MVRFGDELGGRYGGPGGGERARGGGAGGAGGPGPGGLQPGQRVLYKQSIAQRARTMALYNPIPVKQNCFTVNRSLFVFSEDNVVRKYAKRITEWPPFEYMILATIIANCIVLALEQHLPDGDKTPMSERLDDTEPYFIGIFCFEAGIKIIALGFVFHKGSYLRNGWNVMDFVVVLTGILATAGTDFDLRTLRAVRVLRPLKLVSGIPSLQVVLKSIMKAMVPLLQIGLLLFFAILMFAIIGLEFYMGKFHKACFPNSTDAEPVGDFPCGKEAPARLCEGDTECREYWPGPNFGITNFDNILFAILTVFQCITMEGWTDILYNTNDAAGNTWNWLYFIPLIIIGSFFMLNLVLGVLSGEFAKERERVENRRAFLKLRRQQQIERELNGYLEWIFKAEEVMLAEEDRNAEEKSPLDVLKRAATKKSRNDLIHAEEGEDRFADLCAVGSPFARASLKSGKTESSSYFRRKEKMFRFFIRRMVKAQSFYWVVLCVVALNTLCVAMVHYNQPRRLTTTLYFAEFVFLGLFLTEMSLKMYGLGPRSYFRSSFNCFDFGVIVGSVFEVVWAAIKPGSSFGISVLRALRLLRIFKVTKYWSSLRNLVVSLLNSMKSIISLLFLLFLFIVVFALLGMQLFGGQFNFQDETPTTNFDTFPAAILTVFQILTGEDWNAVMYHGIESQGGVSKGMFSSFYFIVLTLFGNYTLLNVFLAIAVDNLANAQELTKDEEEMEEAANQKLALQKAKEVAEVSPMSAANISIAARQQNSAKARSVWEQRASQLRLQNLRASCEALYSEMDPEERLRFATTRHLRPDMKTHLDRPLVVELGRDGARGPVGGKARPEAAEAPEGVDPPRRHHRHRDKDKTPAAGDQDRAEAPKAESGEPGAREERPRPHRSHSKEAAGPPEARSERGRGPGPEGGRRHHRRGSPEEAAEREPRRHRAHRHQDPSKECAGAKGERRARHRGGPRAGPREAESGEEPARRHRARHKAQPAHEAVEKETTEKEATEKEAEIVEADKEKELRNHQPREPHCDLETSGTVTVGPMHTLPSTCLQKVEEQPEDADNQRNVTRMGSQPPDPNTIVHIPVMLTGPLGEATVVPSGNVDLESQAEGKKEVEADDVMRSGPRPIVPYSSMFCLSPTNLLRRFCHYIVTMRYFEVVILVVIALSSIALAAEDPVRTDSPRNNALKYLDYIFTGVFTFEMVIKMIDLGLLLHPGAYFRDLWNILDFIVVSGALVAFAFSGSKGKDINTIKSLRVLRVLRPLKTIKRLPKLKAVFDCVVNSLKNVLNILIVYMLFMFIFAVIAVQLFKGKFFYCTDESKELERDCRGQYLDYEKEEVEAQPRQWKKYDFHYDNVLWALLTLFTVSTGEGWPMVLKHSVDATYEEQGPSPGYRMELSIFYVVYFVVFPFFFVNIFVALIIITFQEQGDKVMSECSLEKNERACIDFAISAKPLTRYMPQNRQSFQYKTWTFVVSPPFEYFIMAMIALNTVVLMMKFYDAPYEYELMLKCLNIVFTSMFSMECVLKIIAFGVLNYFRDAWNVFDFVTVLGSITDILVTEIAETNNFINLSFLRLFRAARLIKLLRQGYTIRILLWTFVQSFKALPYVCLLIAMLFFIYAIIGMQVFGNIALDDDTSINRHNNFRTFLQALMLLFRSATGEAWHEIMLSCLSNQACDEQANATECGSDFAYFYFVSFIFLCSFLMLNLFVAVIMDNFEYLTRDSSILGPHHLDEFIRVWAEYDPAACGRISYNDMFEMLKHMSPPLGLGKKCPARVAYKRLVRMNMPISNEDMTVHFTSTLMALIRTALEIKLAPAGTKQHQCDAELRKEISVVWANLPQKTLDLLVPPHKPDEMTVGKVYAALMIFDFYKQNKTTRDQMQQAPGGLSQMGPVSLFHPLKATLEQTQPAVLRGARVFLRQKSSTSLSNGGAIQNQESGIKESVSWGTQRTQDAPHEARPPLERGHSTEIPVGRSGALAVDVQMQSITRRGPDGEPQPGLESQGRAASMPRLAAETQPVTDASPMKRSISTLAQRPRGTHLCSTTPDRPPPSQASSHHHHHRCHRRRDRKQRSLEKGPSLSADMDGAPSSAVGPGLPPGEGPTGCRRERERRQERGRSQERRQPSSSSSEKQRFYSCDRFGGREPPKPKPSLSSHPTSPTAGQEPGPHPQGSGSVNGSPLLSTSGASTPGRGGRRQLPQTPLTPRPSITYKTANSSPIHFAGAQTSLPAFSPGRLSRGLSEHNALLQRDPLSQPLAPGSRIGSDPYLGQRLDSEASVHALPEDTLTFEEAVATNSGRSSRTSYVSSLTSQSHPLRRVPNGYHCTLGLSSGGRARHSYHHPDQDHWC
# Chain of N-type calcium channel (α1B (Cav2.2), β3 and α2δ subunits) (P54284 whole entry partner): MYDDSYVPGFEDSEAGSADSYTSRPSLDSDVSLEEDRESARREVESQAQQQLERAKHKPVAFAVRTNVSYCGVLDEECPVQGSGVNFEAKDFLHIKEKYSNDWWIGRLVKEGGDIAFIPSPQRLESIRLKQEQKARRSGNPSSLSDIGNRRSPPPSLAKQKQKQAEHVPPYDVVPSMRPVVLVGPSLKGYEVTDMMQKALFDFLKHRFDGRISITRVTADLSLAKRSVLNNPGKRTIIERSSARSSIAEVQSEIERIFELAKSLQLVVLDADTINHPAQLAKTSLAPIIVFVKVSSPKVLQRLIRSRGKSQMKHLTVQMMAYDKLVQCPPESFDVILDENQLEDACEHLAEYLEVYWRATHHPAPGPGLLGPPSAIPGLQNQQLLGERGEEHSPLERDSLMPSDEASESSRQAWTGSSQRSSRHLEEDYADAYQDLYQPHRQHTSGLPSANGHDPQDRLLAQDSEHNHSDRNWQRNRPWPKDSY
# Chain of N-type calcium channel (α1B (Cav2.2), β3 and α2δ subunits) (P54289 25-946 partner limits assumed): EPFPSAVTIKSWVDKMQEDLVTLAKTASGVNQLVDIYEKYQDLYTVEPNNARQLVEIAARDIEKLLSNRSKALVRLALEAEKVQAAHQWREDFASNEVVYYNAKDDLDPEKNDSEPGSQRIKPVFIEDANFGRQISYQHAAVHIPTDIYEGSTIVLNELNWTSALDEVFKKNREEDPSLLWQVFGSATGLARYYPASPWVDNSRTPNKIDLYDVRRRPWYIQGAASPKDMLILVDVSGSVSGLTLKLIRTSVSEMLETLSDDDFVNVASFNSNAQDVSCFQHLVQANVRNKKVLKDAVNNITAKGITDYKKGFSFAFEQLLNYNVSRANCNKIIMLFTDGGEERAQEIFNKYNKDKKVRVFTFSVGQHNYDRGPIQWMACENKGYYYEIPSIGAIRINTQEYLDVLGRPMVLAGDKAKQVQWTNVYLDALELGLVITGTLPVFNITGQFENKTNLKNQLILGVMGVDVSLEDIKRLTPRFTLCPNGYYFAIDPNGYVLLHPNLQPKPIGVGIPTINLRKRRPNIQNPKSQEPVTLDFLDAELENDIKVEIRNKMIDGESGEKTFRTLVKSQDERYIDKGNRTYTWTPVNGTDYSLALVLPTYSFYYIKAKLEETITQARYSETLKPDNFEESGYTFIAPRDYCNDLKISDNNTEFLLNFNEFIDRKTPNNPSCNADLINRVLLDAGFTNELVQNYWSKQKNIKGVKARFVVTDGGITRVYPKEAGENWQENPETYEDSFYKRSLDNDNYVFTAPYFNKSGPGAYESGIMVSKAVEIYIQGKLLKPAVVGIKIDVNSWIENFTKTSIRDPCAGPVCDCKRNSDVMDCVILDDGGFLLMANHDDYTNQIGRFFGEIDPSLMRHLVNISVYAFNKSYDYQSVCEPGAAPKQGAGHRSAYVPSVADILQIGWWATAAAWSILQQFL
# Chain of N-type calcium channel (α1B (Cav2.2), β3 and α2δ subunits) (P54289 947-1103 partner limits assumed): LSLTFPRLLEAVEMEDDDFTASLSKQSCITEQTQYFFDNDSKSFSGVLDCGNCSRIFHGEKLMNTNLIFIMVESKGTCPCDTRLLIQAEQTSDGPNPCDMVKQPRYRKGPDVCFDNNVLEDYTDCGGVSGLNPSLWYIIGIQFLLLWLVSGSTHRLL
SMILES,inhibition at 0.33 µM (0.33 μM) [%],IC50 [1] [nM],further results
"COc1ccccc1-n1nc2c(c1-c1ccc(Cl)cc1)C[C@@H](Oc1ccccn1)C2 [Compound 61, (5R)-3-(4-chlorophenyl)-2-(2-methoxyphenyl)-5-(pyridin-2-yloxy)-2,4,5,6-tetrahydrocyclopenta[c]pyrazole]",77,98,
"COc1ccccc1-n1nc2c(c1-c1ccc(Cl)cc1)CC(N1CCCC1)C2 (stereo not shown) [Compound 122, 3-(4-chlorophenyl)-2-(2-methoxyphenyl)-5-pyrrolidin-1-yl-2,4,5,6-tetrahydrocyclopenta[c]pyrazole]",33,,
"COc1ccccc1-n1nc2c(c1-c1ccc(Cl)cc1)C[C@H](OCC1CCOCC1)C2 [Compound 87, (5S)-3-(4-chlorophenyl)-2-(2-methoxyphenyl)-5-(tetrahydro-2H-pyran-4-ylmethoxy)-2,4,5,6-tetrahydrocyclopenta[c]pyrazole]",82,92,
"COc1ccccc1-n1nc2c(c1-c1ccc(Cl)cc1)CC(C#N)C2 (stereo not shown) [Compound 10, 3-(4-chlorophenyl)-2-(2-methoxyphenyl)-2,4,5,6-tetrahydrocyclopenta[c]pyrazole-5-carbonitrile]",83,300,
"COc1ccccc1-n1nc2c(c1-c1ccc(Cl)cc1)CC(N1CCC(C)(C)C1)C2 (stereo not shown) [Compound 119, 3-(4-chlorophenyl)-5-(3,3-dimethylpyrrolidin-1-yl)-2-(2-methoxyphenyl)-2,4,5,6-tetrahydrocyclopenta[c]pyrazole]",76,84,
"COc1cc(Cl)ccc1-n1nc2c(c1-c1ccc(Cl)cc1)CC1(C2)OCCCO1 [Compound 52, 2-(4-Chloro-2-methoxyphenyl)-3-(4-chlorophenyl)-2,6-dihydro-4H-spiro[cyclopenta[c]pyrazole-5,2′-[1,3]dioxane]]",64,130,
"COc1ccccc1-n1nc2c(c1-c1ccc(Cl)cc1)CC(c1ccc(OC(C)C)nc1)C2 (stereo not shown) [Compound 60, 3-(4-chlorophenyl)-2-(2-methoxyphenyl)-5-[6-(1-methylethoxy)pyridin-3-yl]-2,4,5,6-tetrahydrocyclopenta[c]pyrazole]",62,280,
"COc1ccccc1-n1nc2c(c1-c1ccc(Cl)cc1)CC(C1CCCCC1)C2 (stereo not shown) [Compound 104, 3-(4-chlorophenyl)-5-cyclohexyl-2-(2-methoxyphenyl)-2,4,5,6-tetrahydrocyclopenta[c]pyrazole]",61,140,
"COc1ccccc1-n1nc2c(c1-c1ccc(Cl)s1)CC1(C2)OCC(C)(C)CO1 [Compound 120, 3-(5-chlorothiophen-2-yl)-2-(2-methoxyphenyl)-5′,5′-dimethyl-2,6-dihydro-4H-spiro[cyclopenta[c]pyrazole-5,2′-[1,3]dioxane]]",78,91,
"OC1Cc2nn(-c3ccccc3OC(F)(F)F)c(-c3ccc(Cl)cc3)c2C1 (stereo not shown) [Compound 25, 3-(4-chlorophenyl)-2-[2-(trifluoromethoxy)phenyl]-2,4,5,6-tetrahydrocyclopenta[c]pyrazol-5-ol]",,,inhibition at 1 µM (1 μM): 61%
"COc1ccccc1-n1nc2c(c1-c1ccc(Cl)cc1)C[C@H](OCC1CCCCC1)C2 [Compound 82, (5S)-3-(4-chlorophenyl)-5-(cyclohexylmethoxy)-2-(2-methoxyphenyl)-2,4,5,6-tetrahydrocyclopenta[c]pyrazole]",,,inhibition at 0.33 µM: 76%; IC50 (FDSS IC50): 130 nM
"COc1ccccc1-n1nc2c(c1-c1ccc(Cl)cc1)CC(C1CCC(C)(C)CC1)C2 (stereo not shown) [Compound 64, 3-(4-chlorophenyl)-5-(4,4-dimethylcyclohexyl)-2-(2-methoxyphenyl)-2,4,5,6-tetrahydrocyclopenta[c]pyrazole]",66,280,
"COc1ccccc1-n1nc2c(c1-c1ccc(Cl)cc1)CC(N1CCC(C)CC1)C2 (stereo not shown) [Compound 117, 3-(4-chlorophenyl)-2-(2-methoxyphenyl)-5-(4-methylpiperidin-1-yl)-2,4,5,6-tetrahydrocyclopenta[c]pyrazole]",75,44,
"COc1ccccc1-n1nc2c(c1-c1ccc(Cl)cc1)CC(c1ccc(C)nc1)C2 (stereo not shown) [Compound 73, 3-(4-chlorophenyl)-2-(2-methoxyphenyl)-5-(6-methylpyridin-3-yl)-2,4,5,6-tetrahydrocyclopenta[c]pyrazole]",81,86,
"COc1ccccc1-n1nc2c(c1-c1ccc(Cl)cc1)C[C@@H](OC)C2 [Compound 49, (5R)-3-(4-chlorophenyl)-5-methoxy-2-(2-methoxyphenyl)-2,4,5,6-tetrahydrocyclopenta[c]pyrazole]",76,52,
"CCc1nccn1[C@@H]1Cc2nn(-c3ccccc3OC)c(-c3ccc(C#N)cc3)c2C1 [Compound 134, 4-[(5S)-5-(2-ethyl-1H-imidazol-1-yl)-2-(2-methoxyphenyl)-2,4,5,6-tetrahydrocyclopenta[c]pyrazol-3-yl]benzonitrile]",50,200,
"COc1ccccc1-n1nc2c(c1-c1ccc(Cl)cc1)CC(C(C)C)C2 (stereo not shown) [Compound 92, 3-(4-chlorophenyl)-2-(2-methoxyphenyl)-5-(1-methylethyl)-2,4,5,6-tetrahydrocyclopenta[c]pyrazole]",,,inhibition at 0.33 µM: 43%
"CCc1nc(CC)n([C@@H]2Cc3nn(-c4ccccc4OC)c(-c4ccc(C#N)cc4)c3C2)c1CC [Compound 137, 4-[(5S)-2-(2-methoxyphenyl)-5-(2,4,5-triethyl-1H-imidazol-1-yl)-2,4,5,6-tetrahydrocyclopenta[c]pyrazol-3-yl]benzonitrile]",49,,
"COc1ccccc1-n1nc2c(c1-c1ccc(C#N)cc1)C[C@H](n1ccnc1C)C2 [Compound 135, 4-[(5S)-2-(2-methoxyphenyl)-5-(2-methyl-1H-imidazol-1-yl)-2,4,5,6-tetrahydrocyclopenta[c]pyrazol-3-yl]benzonitrile]",44,,
"CCc1ccccc1-n1nc2c(c1-c1ccc(Cl)cc1)CC(/C=N\C(=O)OC(C)(C)C)C2 (racemic) [Compound 15, tert-butyl{[3-(4-chlorophenyl)-2-(2-ethylphenyl)-2,4,5,6-tetrahydrocyclopenta[c]pyrazol-5-yl]methylidene}carbamate]",,300,
"CN(C)C(=O)NCCC1Cc2nn(-c3ccccc3C(F)(F)F)c(-c3ccc(Cl)cc3)c2C1 (stereo not shown) [Compound 22, 3-(2-{3-(4-chlorophenyl)-2-[2-(trifluoromethyl)phenyl]-2,4,5,6-tetrahydrocyclopenta[c]pyrazol-5-yl}ethyl)-1,1-dimethylurea]",,220,
"COc1ccccc1-n1nc2c(c1-c1ccccc1)CC(CNS(C)(=O)=O)C2 (stereo not shown) [Compound 7, N-{[2-(2-methoxyphenyl)-3-phenyl-2,4,5,6-tetrahydrocyclopenta[c]pyrazol-5-yl]methyl}methanesulfonamide]",68,,
"CCOC(=O)C1Cc2nn(-c3ccccc3CC)c(-c3ccc(Cl)cc3)c2C1 (stereo not shown) [Compound 14, ethyl 3-(4-chlorophenyl)-2-(2-ethylphenyl)-2,4,5,6-tetrahydrocyclopenta[c]pyrazole-5-carboxylate]",,90,
"COC(=O)c1cn([C@@H]2Cc3nn(-c4ccccc4OC)c(-c4ccc(C#N)cc4)c3C2)nn1 [Compound 125, methyl 1-[(5S)-3-(4-cyanophenyl)-2-(2-methoxyphenyl)-2,4,5,6-tetrahydrocyclopenta[c]pyrazol-5-yl]-1H-1,2,3-triazole-4-carboxylate]",70,81,
"CCc1ccccc1-n1nc2c(c1-c1ccc(Cl)cc1)CC(COC(=O)N(CC)CC)C2 (stereo not shown) [Compound 17, [3-(4-chlorophenyl)-2-(2-ethylphenyl)-2,4,5,6-tetrahydrocyclopenta[c]pyrazol-5-yl]methyl diethylcarbamate]",,180,
"COc1ccccc1-n1nc2c(c1-c1ccc(Cl)cc1)C[C@H](Oc1ccccc1)C2 [Compound 58, (5S)-3-(4-chlorophenyl)-2-(2-methoxyphenyl)-5-phenoxy-2,4,5,6-tetrahydrocyclopenta[c]pyrazole]",65,130,
"COc1ccccc1-n1nc2c(c1-c1ccc(Cl)cc1)CC(CCO)C2 (stereo not shown) [Compound 1, 2-[3-(4-chlorophenyl)-2-(2-methoxyphenyl)-2,4,5,6-tetrahydrocyclopenta[c]pyrazol-5-yl]ethanol]",,200,

# — patent US8853418B2, “Cyclopentylpyrazoles as N-type calcium channel blockers” (Janssen Pharmaceutica NV, priority 2012, dated 2014)
